Data on 2 compounds can be found in US20110190235A1, “BORON-CONTAINING SMALL MOLECULES AS ANTIPROTOZOAL AGENTS” (Anacor Pharmaceuticals, Inc., priority 2009, published 2011).

Values after ≈ are worked out from the molar mass of the structure shown. Like-named read-outs stand apart in the source and are kept apart here. Bounds are passed on as bounds.

The subject of data set [1] is bloodstream-form trypanosome T. brucei brucei 427 strain. Briefly: Trypanosoma brucei brucei high-throughput in vitro drug sensitivity assay (resazurin). It counts as cell-based. As to conditions: for IC50: Trypanosoma brucei, 72 hrs incubation.
Data set [2] can be described thus: Kinetic solubility by nephelometric (light scattering) method. Format: physicochemical. As to conditions: phosphate buffered saline, aqueous buffer, kinetic from dmso stock, PBS pH 7.4. As for the experimental part: The kinetic solubilities of compounds were estimated using a nephelometric (light scattering) method. Briefly, compounds were serially diluted in DMSO, followed by dilution in PBS pH 7.4. After incubation, the amount of light scattered by a compound at each concentration was measured. […] At concentrations above the solubility limit, the compound precipitates and the precipitant in the well scatters the light, generating a signal. Higher levels of precipitant in a well scatter more light and produce a stronger signal.
A stock solution of compound (25 mM in DMSO) was prepared, and was serially diluted in DMSO in two-fold increments in a row of a 96 well plate to a lowest concentration of 24 μM. A duplicate plate was prepared by transfer of half of the volume of each well to a new plate. Each well containing DMSO solution of the test compound was then diluted further (1:100) with phosphate buffered saline (pH 7.4) to provide aqueous solutions of compound at the following final concentrations: 250, 125, 62.5, 31.3, 15.6, 7.8, 3.9, 2.0, 1.0, 0.5 and 0.2 μM. All liquid handling stages were performed on a Beckman Coulter Biomek NX Laboratory Automation Workstation. Each compound was diluted and tested in duplicate, providing four separate wells at each test concentration.
The test solutions of compound were incubated at room temperature for 90 minutes and then analyzed using a Thermoskan Ascent nephelometric plate reader. The nephelometer protocol included two steps: first, the plate was shaken for 60 seconds at 1200 rpm, then each well of the plate was read in succession with an 800 ms settling delay between measurements. The total measurement time for a single plate was less than 4 minutes.
The four values (in nephelometric units) obtained for each compound at each concentration were averaged and plotted on a log scale versus concentration.

Data set [3] in a line: L929 cytotoxicity evaluation (resazurin). Format: cell-based. The settings on record: mouse, L929 mouse fibroblast cells; 72 hrs incubation; read-out: Cytotox L-929 IC50. In short, it runs like this: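 Mouse L929 fibroblasts (1×10^4/mL seeding, attached overnight) were treated 72 h at 37 °C, 5% CO2 with serially diluted compounds in DMSO in D-MEM/10% FBS. Viability read by resazurin fluorescence after 3–4 h (ex 544/em 590 nm); IC50 from sigmoidal fits of single data points.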

`O=C(Nc1ccc2c(c1)B(O)OC21CCC1)c1ccc(F)cc1Cl` [compound 135]: in data set [1] (T. b. brucei vs L929), the “Selectivity Index (L929 IC50 / T. b. brucei IC50)” value is recorded as greater than 58. The IC50 in data set [1] (read-out: T. b. brucei IC50) is 498 nM; in data set [1] (read-out: T.b. brucei IC50) it was 0.172 µg/mL. Moreover, in data set [2], the concentration in solution (solubility at 90 min) was 25 µM (≈ 8.64 µg/mL). In addition, the IC50 at 72 h in data set [3] is greater than 10 µg/mL.
For the compound `O=C(Nc1ccc2c(c1)B(O)OC21CCCC1)c1ccc(F)cc1C(F)(F)F` [compound 136], the IC50 was greater than 12700 nM in data set [1] (read-out: T. b. brucei IC50) and greater than 5 µg/mL in data set [1] (read-out: T.b. brucei IC50). In addition, in data set [2], the solubility at 90 min worked out at 25 µM (≈ 9.83 µg/mL). The IC50 at 72 h in data set [3] is greater than 10 µg/mL.
